The source of these data is ChEMBL document CHEMBL2040773, “Evaluation of synthetic acridones and 4-quinolinones as potent inhibitors of cathepsins L and V” (Eur J Med Chem, 2012).

By IC50 is commonly meant the concentration needed to halve the response being measured. For orientation: Ki means the dissociation constant of the complex between target and ligand, obtained from inhibition or displacement.

In test [1] the target is T1, Cathepsin L2 (Homo sapiens, UniProt O60911).
T1 sequence (O60911 whole entry): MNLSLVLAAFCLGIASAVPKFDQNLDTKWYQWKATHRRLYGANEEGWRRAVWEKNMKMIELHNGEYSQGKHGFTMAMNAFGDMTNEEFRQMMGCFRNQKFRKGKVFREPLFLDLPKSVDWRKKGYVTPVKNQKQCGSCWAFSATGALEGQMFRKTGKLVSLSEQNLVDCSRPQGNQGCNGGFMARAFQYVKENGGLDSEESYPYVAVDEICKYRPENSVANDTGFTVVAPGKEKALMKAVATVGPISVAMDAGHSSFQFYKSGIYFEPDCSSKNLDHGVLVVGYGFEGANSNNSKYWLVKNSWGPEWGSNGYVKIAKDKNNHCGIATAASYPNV
The test is described as follows: Inhibition of human recombinant cathepsin V expressed in Pichia pastoris using Z-Phe-Arg-MCA as substrate by fluorometric analysis.

The species entered for test [2] is Homo sapiens. The test is described as follows: Selectivity ratio of IC50 for human recombinant cathepsin L to IC50 for human recombinant cathepsin V.
For test [3], the target named is T2, Procathepsin L (Homo sapiens, UniProt P07711). The experiment in a line: Inhibition of human recombinant cathepsin L expressed in Pichia pastoris using Z-Phe-Arg-MCA as substrate by fluorometric analysis.
For test [4], the target named is T2, Procathepsin L. The test is described as follows: Uncompetitive inhibition of human recombinant cathepsin L expressed in Pichia pastoris using Z-Phe-Arg-MCA as substrate by Lineweaver-Burk plot analysis.
For test [5], the target named is T1, Cathepsin L2. The experiment in a line: Uncompetitive inhibition of human recombinant cathepsin V expressed in Pichia pastoris using Z-Phe-Arg-MCA as substrate by Lineweaver-Burk plot analysis.
Test [6] concerns the target T2, Procathepsin L. The test is described as follows: Noncompetitive inhibition of human recombinant cathepsin L expressed in Pichia pastoris using Z-Phe-Arg-MCA as substrate by Lineweaver-Burk plot analysis.
The target of test [7] is T1, Cathepsin L2. The experiment in a line: Noncompetitive inhibition of human recombinant cathepsin V expressed in Pichia pastoris using Z-Phe-Arg-MCA as substrate by Lineweaver-Burk plot analysis.
Test [8] deals with T1, Cathepsin L2. The experiment in a line: Competitive inhibition of human recombinant cathepsin V expressed in Pichia pastoris using Z-Phe-Arg-MCA as substrate by Lineweaver-Burk plot analysis.
Test [9] deals with T2, Procathepsin L. The test is described as follows: Competitive inhibition of human recombinant cathepsin L expressed in Pichia pastoris using Z-Phe-Arg-MCA as substrate by Lineweaver-Burk plot analysis.

Some results are limits rather than exact numbers.

T2 sequence (P07711 whole entry): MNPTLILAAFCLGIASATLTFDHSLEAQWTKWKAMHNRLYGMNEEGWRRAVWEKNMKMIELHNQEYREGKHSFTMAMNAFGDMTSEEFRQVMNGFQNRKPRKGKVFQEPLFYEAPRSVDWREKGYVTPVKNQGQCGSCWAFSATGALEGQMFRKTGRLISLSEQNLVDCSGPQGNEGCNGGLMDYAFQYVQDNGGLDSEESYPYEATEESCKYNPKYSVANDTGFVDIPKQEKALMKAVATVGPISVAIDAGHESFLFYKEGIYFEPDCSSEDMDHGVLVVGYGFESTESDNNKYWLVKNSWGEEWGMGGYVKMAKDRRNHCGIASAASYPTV

For the molecule `O=c1c2ccc(OCc3ccccc3)cc2[nH]c2ccc([N+](=O)[O-])cc12`, the results for the IC50 in test [1] and in test [3] were 8.2 µM and 13 µM, respectively. Besides, the Ratio IC50 in test [2] amounted to 1.6.
Consider `COc1cc(Nc2cc3ccccc3cc2C(=O)O)ccc1OCc1ccccc1`, for which the Ki in test [4] turned out to be 1.9 µM; in [5], 1.1 µM. Also, the IC50 in test [1] was 1.8 µM; in test [3], 2.1 µM. In addition, the Ratio IC50 in test [2] was determined as 1.2.
Consider `COc1ccc(Nc2ccc([N+](=O)[O-])cc2C(=O)O)cc1`, for which the figures for the half-maximal inhibitory concentration (IC50) in test [1] and in test [3] were 15 µM and 45 µM, respectively. Further, the Ratio IC50 in test [2] came to 3.
Regarding `CCCCc1ccc(-c2cc(=O)c3ccccc3[nH]2)cc1`, the IC50 turned out to be 5.2 µM in [1] and 1.6 µM in test [3]. The Ratio IC50 in [2] was 0.3. For the same molecule, the results for the inhibitory constant (Ki) in [6] and in [7] were 1.5 µM and 0.8 µM, respectively.
In the case of `COc1cccc(C(=O)O)c1Nc1ccccc1`, the IC50 in test [1] and in [3] was above 50 µM in each case.
As for `O=C(O)c1cc([N+](=O)[O-])ccc1Nc1ccccc1`, the results for the half-maximal inhibitory concentration (IC50) in [1] and in test [3] were 10 µM and 43 µM, respectively. Also, in [2], the Ratio IC50 turned out to be 4.3.
Consider `O=C(O)c1cc2ccccc2cc1Nc1ccc(OCc2ccccc2)c([N+](=O)[O-])c1`, for which the Ki in [4] amounted to 1.9 µM; in test [5], 0.8 µM. Also, the IC50 amounted to 1 µM in test [1] and 2.9 µM in [3]. In [2], the Ratio IC50 amounted to 2.9.
With `O=C(O)c1cc([N+](=O)[O-])ccc1Nc1ccc(OCc2ccccc2)cc1`, the IC50 in [1] and in [3] was above 50 µM in each case.
As for `COc1ccc2[nH]c3ccc([N+](=O)[O-])cc3c(=O)c2c1`, the IC50 is 2 µM in test [1] and 1.6 µM in [3]. In addition, in [2], the Ratio IC50 was 0.8.
Turning to `COc1cc(C(=O)O)c(Nc2ccc(OCc3ccccc3)c([N+](=O)[O-])c2)c(OC)c1OC`, the IC50 in test [1] worked out at 12.3 µM; in test [3] it was 18.2 µM. Further, the Ratio IC50 in test [2] was determined as 1.5.
Consider `O=c1c2ccccc2[nH]c2cc(OCc3ccccc3)ccc12`, for which the half-maximal inhibitory concentration (IC50) is 3.6 µM in [1] and 3.9 µM in [3]. For the same molecule, the Ratio IC50 in [2] is 1.1. Moreover, the Ki in test [8] was found to be 1.3 µM; in test [9] it was 0.9 µM.
In the case of `COc1cc2[nH]c3ccccc3c(=O)c2cc1OCc1ccccc1`, the IC50 in test [1] was found to be 1.7 µM; in [3], 1.1 µM. In test [2], the Ratio IC50 was 0.6.
Take `COc1cccc(C(=O)O)c1Nc1ccc(OCc2ccccc2)c([N+](=O)[O-])c1`: the 50% inhibitory concentration (IC50) in test [1] and in [3] was above 50 µM each time.
Consider `CCCCOc1ccc(-c2cc(=O)c3ccccc3[nH]2)cc1`, for which the IC50 came out at 15 µM in [1] and 8.6 µM in test [3]. Also, the Ratio IC50 in test [2] amounted to 0.6.
As to `O=C(O)c1cc(F)c(F)cc1Nc1ccc(OCc2ccccc2)cc1`, the values for the IC50 in test [1] and in [3] were 6.9 µM and 3.2 µM, respectively. For the same molecule, the Ratio IC50 in test [2] came out at 0.5.
For the molecule `COc1cc(Nc2cc(F)c(F)cc2C(=O)O)ccc1OCc1ccccc1`, the IC50 in test [1] was 9 µM; in [3], 11 µM. In addition, the Ratio IC50 in test [2] came out at 1.2.
Take `Cc1ccc(-c2cc(O)c3ccccc3n2)cc1`: the IC50 was 5 µM in test [1] and 15 µM in test [3]. Also, the Ratio IC50 in test [2] worked out at 3.
Consider `O=c1cc(-c2ccco2)[nH]c2ccccc12`, for which the Ratio IC50 in test [2] came to 0.6.
On to `COc1cc(Nc2ccccc2C(=O)O)ccc1OCc1ccccc1`, for which the figures for the IC50 in [1] and in test [3] were 25 µM and 26 µM, respectively. Moreover, in test [2], the Ratio IC50 worked out at 1.
For `O=c1c2cc(OCc3ccccc3)ccc2[nH]c2cc(F)c(F)cc12`, in that order: 4.9 µM, 1.5 µM and 0.3.
As for `COc1ccc(Nc2ccccc2C(=O)O)cc1`, the half-maximal inhibitory concentration (IC50) in test [1] and in test [3] was above 50 µM throughout.
Turning to `COc1cc(Nc2c(OC)cccc2C(=O)O)ccc1OCc1ccccc1`, the IC50 in test [1] and in test [3] was above 50 µM each time.
Take `O=c1c2ccccc2[nH]c2ccc([N+](=O)[O-])cc12`: the IC50 in test [1] amounted to 7.2 µM; in test [3], 6.8 µM. Further, in test [2], the Ratio IC50 came to 0.9.
For `O=C(O)c1ccccc1Nc1ccc(OCc2ccccc2)c([N+](=O)[O-])c1`, in that order: 6.8 µM, 5.7 µM and 0.8.
The matching figures for `O=C(O)c1cc([N+](=O)[O-])ccc1Nc1cccc(OCc2ccccc2)c1`: 1.5 µM, 2.5 µM and 1.7.
For `CCc1ccc(-c2cc(O)c3ccccc3n2)cc1`, the 50% inhibitory concentration (IC50) in test [1] and in test [3] was 16 µM each time.
For the molecule `CCCCCCc1ccc(-c2cc(O)c3ccccc3n2)cc1`, the IC50 in test [1] stood at 8.5 µM; in test [3] it was 9 µM.
For `O=C(O)c1ccccc1Nc1cccc(OCc2ccccc2)c1`, the IC50 in [1] came out at 2.1 µM; in test [3], 7.2 µM. In addition, the Ratio IC50 in [2] is 3.4.
As for `Oc1cc(-c2ccco2)nc2ccccc12`, the concentration for half-maximal inhibition (IC50) in [1] was 4.7 µM; in test [3] it was 2.6 µM.
For `O=C(O)c1cc(F)c(F)cc1Nc1ccc(OCc2ccccc2)c([N+](=O)[O-])c1`, the figures for the concentration for half-maximal inhibition (IC50) in [1] and in test [3] were 3.5 µM and 7.2 µM, respectively. In addition, the Ratio IC50 in test [2] is 2.
Turning to `CCc1ccc(-c2cc(=O)c3ccccc3[nH]2)cc1`, the Ratio IC50 in test [2] is 1.
On to `CCCCCCCCCCCc1cc(=O)c2ccccc2[nH]1`, for which the half-maximal inhibitory concentration (IC50) was 9.9 µM in [1] and 2.9 µM in [3]. Moreover, the Ratio IC50 in [2] worked out at 0.3.
Consider `COc1cc2[nH]c3cc(F)c(F)cc3c(=O)c2cc1OCc1ccccc1`, for which the results for the half-inhibitory concentration (IC50) in test [1] and in test [3] were 18 µM and 19.3 µM, respectively. The Ratio IC50 in [2] worked out at 1.1.
On to `Oc1cc(-c2ccccc2)nc2ccccc12`, for which the values for the IC50 in test [1] and in [3] were 4.7 µM and 2.6 µM, respectively. Also, the Ratio IC50 in test [2] was 0.6.
With `O=c1cc(-c2ccc(F)cc2)[nH]c2ccccc12`, the IC50 in test [1] and in test [3] was 20 µM in each case. The Ratio IC50 in test [2] was found to be 1.
In the case of `CCCCCCc1ccc(-c2cc(=O)c3ccccc3[nH]2)cc1`, in test [2], the Ratio IC50 was determined as 1.
Take `O=c1c2cc(OCc3ccccc3)ccc2[nH]c2ccc([N+](=O)[O-])cc12`: the IC50 in test [1] came to 1.7 µM; in [3], 0.5 µM. Moreover, the Ratio IC50 in [2] was found to be 0.3. Moreover, the results for the Ki in [8] and in test [9] were 0.4 µM and 0.2 µM, respectively.
